From article PMC11915372, “Identification of a Series Containing a Pentafluorophenyl Moiety That Targets Pks13 to Inhibit Growth of Mycobacterium tuberculosis” (ACS Infectious Diseases, 2025)
Where “and” joins values, the source holds several entries; their conditions need not be identical. Equal values may be shown once.

System: H37Rv cells
Assay type: cell-based, Mycobacterium tuberculosis

SMILES: CN(C)c1ncnc2sc(-c3c(F)c(F)c(F)c(F)c3F)nc12.Cl [Compound 1, CN(C)c1ncnc2sc(nc12)-c1c(c(c(c(c1F)F)F)F)F]
- frequency of resistant colonies: 10^–7 and 10^–8
